Experimental data taken from US8940742B2, “Heterocyclic compounds and uses thereof” (Infinity Pharmaceuticals, Inc., priority 2012, dated 2015).

Legend:
Assay in all cases: PI3-Kinase Promega ADP-Glo Max assay
Type in all cases: biochemical
PI3K γ = target: T1, PI3K γ (Homo sapiens, UniProt P48736); settings: 40 nM kinase, 3 mM ATP, 500 uM diC8-PtdInsP
T1 construct: purchased Millipore
Description: Promega ADP-Glo Max assay kit (Cat. No. V7002) was utilized to determine IC50 values for α, β, δ and γ isoforms of human Class I PI3 kinases (Millipore). […] Reactions were incubated at room temperature for 2 hours followed by addition of 25 uL of stop solution. After a 40-minute incubation at room temperature, 50 uL of Promega detection mix was added followed by incubation for 1 hour at room temperature. Plates were then read on Envision plate reader in luminescence mode. Data was converted to % inhibition using the following equation below:
[formula] where S is the sample luminescence, Pos is a positive control without added PI3K, Neg is the negative control without added compound. Data was then plotted as % inhibition vs compound concentration.
(§1) Certain compounds provided herein were tested in PI3-Kinase Promega Assay using procedures as described above to determine IC50 values for α, β, δ and/or γ isoforms.

PI3K α = target: T2, PI3K α (Homo sapiens, UniProt P42336); settings: 20 nM kinase, 3 mM ATP, 500 uM diC8-PtdInsP
T2 construct: purchased Millipore
T2 sequence (P42336 whole entry): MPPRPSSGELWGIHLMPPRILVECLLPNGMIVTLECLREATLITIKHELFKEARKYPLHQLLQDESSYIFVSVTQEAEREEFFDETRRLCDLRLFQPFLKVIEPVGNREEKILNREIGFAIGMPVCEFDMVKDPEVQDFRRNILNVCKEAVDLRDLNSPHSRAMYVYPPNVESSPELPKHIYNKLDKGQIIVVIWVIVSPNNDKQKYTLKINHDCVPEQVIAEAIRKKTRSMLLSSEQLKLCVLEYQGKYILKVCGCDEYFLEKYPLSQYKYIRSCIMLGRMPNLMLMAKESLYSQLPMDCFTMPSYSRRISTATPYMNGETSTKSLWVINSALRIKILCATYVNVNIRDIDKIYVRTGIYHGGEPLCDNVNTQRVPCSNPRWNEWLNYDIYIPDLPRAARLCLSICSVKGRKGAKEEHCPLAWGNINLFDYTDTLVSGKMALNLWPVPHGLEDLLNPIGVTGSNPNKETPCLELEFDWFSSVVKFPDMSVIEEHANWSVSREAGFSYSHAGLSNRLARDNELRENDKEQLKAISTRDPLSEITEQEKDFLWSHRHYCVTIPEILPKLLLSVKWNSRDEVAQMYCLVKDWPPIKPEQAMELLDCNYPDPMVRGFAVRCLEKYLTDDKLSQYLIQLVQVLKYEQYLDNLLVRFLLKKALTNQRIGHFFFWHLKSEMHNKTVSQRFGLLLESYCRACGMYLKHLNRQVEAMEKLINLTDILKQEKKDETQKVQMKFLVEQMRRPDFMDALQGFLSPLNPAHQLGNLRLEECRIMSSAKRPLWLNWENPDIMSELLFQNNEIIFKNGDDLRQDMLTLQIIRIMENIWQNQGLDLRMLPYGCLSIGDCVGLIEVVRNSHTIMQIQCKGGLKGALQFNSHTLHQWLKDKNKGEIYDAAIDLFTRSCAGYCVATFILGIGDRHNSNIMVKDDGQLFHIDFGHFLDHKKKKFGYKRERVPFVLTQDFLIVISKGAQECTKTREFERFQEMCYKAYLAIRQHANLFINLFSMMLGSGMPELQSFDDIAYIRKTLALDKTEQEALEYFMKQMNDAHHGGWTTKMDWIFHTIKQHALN
T2 sequence (P27986 whole entry partner): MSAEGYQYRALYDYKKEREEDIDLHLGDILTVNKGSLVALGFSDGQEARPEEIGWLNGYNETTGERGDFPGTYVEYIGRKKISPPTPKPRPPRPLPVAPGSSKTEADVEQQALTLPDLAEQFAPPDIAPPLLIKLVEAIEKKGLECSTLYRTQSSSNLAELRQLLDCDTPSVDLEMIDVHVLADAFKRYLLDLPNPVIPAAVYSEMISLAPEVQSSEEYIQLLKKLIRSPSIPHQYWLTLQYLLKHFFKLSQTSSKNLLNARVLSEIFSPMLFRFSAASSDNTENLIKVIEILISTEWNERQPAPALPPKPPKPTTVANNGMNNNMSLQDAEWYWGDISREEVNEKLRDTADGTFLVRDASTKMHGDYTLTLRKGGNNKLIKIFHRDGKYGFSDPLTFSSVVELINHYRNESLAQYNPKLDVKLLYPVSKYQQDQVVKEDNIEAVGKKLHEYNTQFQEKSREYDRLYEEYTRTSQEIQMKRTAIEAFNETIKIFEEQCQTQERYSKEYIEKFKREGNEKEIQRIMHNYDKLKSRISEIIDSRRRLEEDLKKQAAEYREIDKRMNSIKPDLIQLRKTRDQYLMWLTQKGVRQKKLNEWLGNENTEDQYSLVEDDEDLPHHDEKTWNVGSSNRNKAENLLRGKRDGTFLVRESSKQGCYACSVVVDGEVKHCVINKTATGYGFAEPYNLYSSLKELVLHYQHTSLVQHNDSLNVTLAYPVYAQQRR
Description: (§2) Promega ADP-Glo Max assay kit (Cat. No. V7002) was utilized to determine IC50 values for α, β, δ and γ isoforms of human Class I PI3 kinases (Millipore). Samples of kinase (20 nM α or δ, 40 nM β or γ isoform) were incubated with compound for 15 minutes at room temperature in reaction buffer (15 mM HEPES pH 7.4, 20 mM NaCl, 1 mM EGTA, 0.02% Tween 20, 10 mM MgCl2, 0.2 mg/mL bovine-γ-globulins) followed by addition of ATP/diC8-PtdInsP mixture to give final concentrations of 3 mM ATP and 500 uM diC8-PtdInsP. Reactions were incubated at room temperature for 2 hours followed by addition of 25 uL of stop solution. After a 40-minute incubation at room temperature, 50 uL of Promega detection mix was added followed by incubation for 1 hour at room temperature. Plates were then read on Envision plate reader in luminescence mode. Data was converted to % inhibition using the following equation below:
(§3) [formula] where S is the sample luminescence, Pos is a positive control without added PI3K, Neg is the negative control without added compound. Data was then plotted as % inhibition vs compound concentration. Data fit to 4 parameter logistic equation to determine IC50 values: […]
as §1

PI3K δ = target: T3, PI3K δ (Homo sapiens, UniProt O00329); settings: 20 nM kinase, 3 mM ATP, 500 uM diC8-PtdInsP
T3 construct: purchased Millipore
T3 sequence (O00329 whole entry): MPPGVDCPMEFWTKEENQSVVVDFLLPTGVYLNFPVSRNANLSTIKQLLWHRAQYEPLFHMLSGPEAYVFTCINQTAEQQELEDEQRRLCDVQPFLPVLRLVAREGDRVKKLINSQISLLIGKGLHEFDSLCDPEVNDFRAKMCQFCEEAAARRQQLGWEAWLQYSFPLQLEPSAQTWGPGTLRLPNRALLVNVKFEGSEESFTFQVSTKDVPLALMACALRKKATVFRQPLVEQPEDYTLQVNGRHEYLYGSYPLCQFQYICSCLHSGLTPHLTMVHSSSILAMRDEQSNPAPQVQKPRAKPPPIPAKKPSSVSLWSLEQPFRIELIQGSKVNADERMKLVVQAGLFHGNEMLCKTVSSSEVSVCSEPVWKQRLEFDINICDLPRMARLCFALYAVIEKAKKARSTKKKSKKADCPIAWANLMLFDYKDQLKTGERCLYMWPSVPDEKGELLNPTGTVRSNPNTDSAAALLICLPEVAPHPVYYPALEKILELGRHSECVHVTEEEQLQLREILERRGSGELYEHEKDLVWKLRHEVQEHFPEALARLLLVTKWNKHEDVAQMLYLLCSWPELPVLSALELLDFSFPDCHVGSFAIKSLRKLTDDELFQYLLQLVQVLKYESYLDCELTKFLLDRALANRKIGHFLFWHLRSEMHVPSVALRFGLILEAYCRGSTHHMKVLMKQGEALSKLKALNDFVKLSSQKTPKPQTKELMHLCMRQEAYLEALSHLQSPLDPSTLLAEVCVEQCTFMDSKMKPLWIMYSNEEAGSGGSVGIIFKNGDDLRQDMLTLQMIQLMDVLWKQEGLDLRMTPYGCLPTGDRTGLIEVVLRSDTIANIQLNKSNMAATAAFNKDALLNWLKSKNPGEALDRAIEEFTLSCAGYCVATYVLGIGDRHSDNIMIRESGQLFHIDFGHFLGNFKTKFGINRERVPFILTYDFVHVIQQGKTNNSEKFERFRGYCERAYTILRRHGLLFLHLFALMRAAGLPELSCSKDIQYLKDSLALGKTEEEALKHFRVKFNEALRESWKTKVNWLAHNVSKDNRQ
T3 sequence (P27986 whole entry partner): as the sequence (P27986 whole entry partner) above
Description: as §2, §3, §1

PI3K β = target: T4, PI3K β (Homo sapiens, UniProt P42338); settings: 40 nM kinase, 3 mM ATP, 500 uM diC8-PtdInsP
T4 construct: purchased Millipore
T4 sequence (P42338 whole entry): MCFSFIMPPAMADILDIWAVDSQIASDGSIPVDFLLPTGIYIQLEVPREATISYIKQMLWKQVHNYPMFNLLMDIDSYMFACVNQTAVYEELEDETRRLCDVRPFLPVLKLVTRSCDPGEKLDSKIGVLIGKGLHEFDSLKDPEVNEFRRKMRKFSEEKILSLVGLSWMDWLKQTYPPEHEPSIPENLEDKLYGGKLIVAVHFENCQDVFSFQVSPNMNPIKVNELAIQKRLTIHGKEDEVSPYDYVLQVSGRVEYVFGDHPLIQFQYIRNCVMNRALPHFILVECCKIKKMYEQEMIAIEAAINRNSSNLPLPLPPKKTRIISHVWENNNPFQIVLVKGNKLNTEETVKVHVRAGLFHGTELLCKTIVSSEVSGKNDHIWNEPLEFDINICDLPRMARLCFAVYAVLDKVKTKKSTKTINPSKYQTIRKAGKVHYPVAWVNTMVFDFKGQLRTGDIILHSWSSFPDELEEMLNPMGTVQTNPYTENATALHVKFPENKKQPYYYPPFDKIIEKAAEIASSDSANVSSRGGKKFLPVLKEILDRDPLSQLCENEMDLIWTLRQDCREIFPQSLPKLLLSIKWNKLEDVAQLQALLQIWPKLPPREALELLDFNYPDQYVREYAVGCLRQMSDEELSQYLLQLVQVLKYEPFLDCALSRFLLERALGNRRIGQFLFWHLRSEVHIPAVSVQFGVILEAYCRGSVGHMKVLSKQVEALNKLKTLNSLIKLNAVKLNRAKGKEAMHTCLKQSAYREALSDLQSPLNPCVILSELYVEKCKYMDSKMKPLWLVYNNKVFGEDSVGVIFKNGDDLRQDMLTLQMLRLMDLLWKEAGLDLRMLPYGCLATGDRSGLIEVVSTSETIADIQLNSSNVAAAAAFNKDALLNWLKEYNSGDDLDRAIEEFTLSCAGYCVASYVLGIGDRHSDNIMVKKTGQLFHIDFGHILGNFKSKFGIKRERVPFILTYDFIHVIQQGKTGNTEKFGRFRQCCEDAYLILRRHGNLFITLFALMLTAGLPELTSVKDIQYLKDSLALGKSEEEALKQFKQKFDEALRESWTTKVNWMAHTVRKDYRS
T4 sequence (P27986 whole entry partner): as the sequence (P27986 whole entry partner) above
Description: as §2, §3, §1

T1 sequence (P48736 whole entry): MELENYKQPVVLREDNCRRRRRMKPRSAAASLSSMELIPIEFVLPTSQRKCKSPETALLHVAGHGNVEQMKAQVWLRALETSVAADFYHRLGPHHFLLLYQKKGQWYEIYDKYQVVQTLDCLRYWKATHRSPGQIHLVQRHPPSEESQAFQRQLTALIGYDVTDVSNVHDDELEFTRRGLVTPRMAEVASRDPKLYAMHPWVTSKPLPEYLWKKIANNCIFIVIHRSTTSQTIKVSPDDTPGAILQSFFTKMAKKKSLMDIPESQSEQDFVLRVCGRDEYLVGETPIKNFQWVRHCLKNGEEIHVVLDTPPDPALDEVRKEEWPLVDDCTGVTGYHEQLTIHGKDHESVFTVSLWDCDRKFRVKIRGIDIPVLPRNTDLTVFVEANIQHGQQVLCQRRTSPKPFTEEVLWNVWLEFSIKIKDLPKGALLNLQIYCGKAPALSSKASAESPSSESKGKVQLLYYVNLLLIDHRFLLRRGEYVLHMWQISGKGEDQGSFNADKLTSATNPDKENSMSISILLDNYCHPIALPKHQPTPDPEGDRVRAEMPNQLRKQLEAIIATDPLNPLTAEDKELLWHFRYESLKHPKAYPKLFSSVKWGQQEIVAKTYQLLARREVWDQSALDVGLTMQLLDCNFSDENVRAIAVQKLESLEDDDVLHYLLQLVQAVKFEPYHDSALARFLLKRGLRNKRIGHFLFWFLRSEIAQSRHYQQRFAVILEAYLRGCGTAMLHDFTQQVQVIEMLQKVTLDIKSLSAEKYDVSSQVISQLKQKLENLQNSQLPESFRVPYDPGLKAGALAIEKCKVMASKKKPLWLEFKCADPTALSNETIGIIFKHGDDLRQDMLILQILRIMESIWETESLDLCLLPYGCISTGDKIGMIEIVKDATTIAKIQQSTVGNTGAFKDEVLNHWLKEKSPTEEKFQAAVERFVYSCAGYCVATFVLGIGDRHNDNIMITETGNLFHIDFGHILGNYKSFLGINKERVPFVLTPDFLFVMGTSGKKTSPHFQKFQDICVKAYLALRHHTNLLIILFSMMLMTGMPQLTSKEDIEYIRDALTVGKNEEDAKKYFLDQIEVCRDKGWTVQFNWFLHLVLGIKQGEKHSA

| Compound | IC50 (PI3K γ) | IC50 (PI3K α) | IC50 (PI3K δ) | IC50 (PI3K β) |
| --- | --- | --- | --- | --- |
| COc1ccc(-c2cnc(N)c(C(=O)N[C@@H](C)c3cc4cccc(Cl)c4c(=O)n3-c3ccccc3)n2)cc1F [Compound 94] | 1 to 10 µM | > 10 µM | 1 to 10 µM | > 10 µM |
| C[C@H](NC(=O)c1nc(-c2cccc(S(=O)(=O)N3CCOCC3)c2)cnc1N)c1cc2cccc(Cl)c2c(=O)n1-c1ccccc1 [Compound 95] | > 10 µM | > 10 µM | > 10 µM | > 10 µM |
| C[C@H](NC(=O)c1nc(-c2cccc(S(=O)(=O)N3CCN(C)CC3)c2)cnc1N)c1cc2cccc(Cl)c2c(=O)n1-c1ccccc1 [Compound 100] | 1 to 10 µM | 1 to 10 µM | 1 to 10 µM | 1 to 10 µM |
| COc1cccc(-c2cnc(N)c(C(=O)N[C@@H](C)c3cc4cccc(Cl)c4c(=O)n3-c3ccccc3)n2)c1 [Compound 105] | > 10 µM | > 10 µM | > 10 µM | > 10 µM |
| Nc1nn2cccnc2c1C(=O)N1CCC[C@H]1c1cc2cccc(Cl)c2c(=O)n1-c1ccccc1 [Compound 147] | 1 to 10 µM | > 10 µM | > 10 µM | 1 to 10 µM |
| Nc1nccnc1C(=O)N1CCC[C@H]1c1cc2cccc(Cl)c2c(=O)n1-c1ccccc1 [Compound 148] | > 10 µM | > 10 µM | 1 to 10 µM | > 10 µM |
| C[C@H](NC(=O)c1nc(-c2cncc(NS(C)(=O)=O)c2)cnc1N)c1cc2cccc(Cl)c2c(=O)n1C1CC1 [Compound 172] | < 0.1 µM | < 0.1 µM | < 0.1 µM | < 0.1 µM |
| CC(C)c1ccnc2c(C(=O)N[C@@H](C)c3cc4cccc(Cl)c4c(=O)n3-c3ccccc3)c(N)nn12 [Compound 177] | > 10 µM | > 10 µM | > 10 µM | > 10 µM |
| CC(=O)Nc1ncc(-c2cccc(NS(C)(=O)=O)c2)nc1C(=O)N[C@@H](C)c1cc2cccc(Cl)c2c(=O)n1C [Compound 185] | > 10 µM | > 10 µM | > 10 µM | > 10 µM |
| C[C@H](NC(=O)c1c(N)nn2cccnc12)c1cc2cccc(/C=C/c3ccccc3)c2c(=O)n1-c1ccccc1 [Compound 199] | > 10 µM | > 10 µM | > 10 µM | > 10 µM |
| COc1cc(-c2csc3cc([C@H](C)NC(=O)c4c(N)nn5cccnc45)n(-c4ccccc4)c(=O)c23)ccn1 [Compound 213] | > 10 µM | > 10 µM | > 10 µM | > 10 µM |
| C[C@H](NC(=O)c1c(N)nn2cccnc12)c1cc2cccc(/C=N\O)c2c(=O)n1-c1ccccc1 [Compound 226] | 0.1 to 1 µM | > 10 µM | 1 to 10 µM | > 10 µM |
| C[C@H](NC(=O)c1c(N)nn2cccnc12)c1cc2cccc(CNCC3CCCO3)c2c(=O)n1-c1ccccc1 (stereo partly shown) [Compound 229] | 1 to 10 µM | > 10 µM | 1 to 10 µM | > 10 µM |
| CNCc1cccc2cc([C@H](C)NC(=O)c3c(N)nn4cccnc34)n(-c3ccccc3)c(=O)c12 [Compound 230] | > 10 µM | > 10 µM | 1 to 10 µM | > 10 µM |
| C[C@H](NC(=O)c1c(N)nn2cccnc12)c1cc2cccc(CN(C)C)c2c(=O)n1-c1ccccc1 [Compound 231] | > 10 µM | > 10 µM | < 0.1 µM | > 10 µM |
| CC(=O)N(C)Cc1cccc2cc([C@H](C)NC(=O)c3c(N)nn4cccnc34)n(-c3ccccc3)c(=O)c12 [Compound 232] | > 10 µM | > 10 µM | < 0.1 µM | > 10 µM |
| COc1cc(-c2cccc3cc([C@H](C)NC(=O)c4c(N)nn5cccnc45)n(C4CCCCC4)c(=O)c23)ccn1 [Compound 233] | 1 to 10 µM | > 10 µM | > 10 µM | > 10 µM |
| CNCCn1c([C@H](C)NC(=O)c2c(N)nn3cccnc23)cc2cccc(Cl)c2c1=O [Compound 241] | 1 to 10 µM | 1 to 10 µM | < 0.1 µM | < 0.1 µM |
| C[C@H](NC(=O)c1c(N)nn2cccnc12)c1cc2cccc(Cl)c2c(=O)n1CCNCCO [Compound 243] | 1 to 10 µM | 1 to 10 µM | 0.1 to 1 µM | < 0.1 µM |

| Compound | IC50 (PI3K γ) | IC50 (PI3K α) | IC50 (PI3K δ) | IC50 (PI3K β) |
| --- | --- | --- | --- | --- |
| COc1ncc(-c2cccc3cc([C@H](C)NC(=O)c4c(N)nn5cccnc45)n(-c4ccccc4)c(=O)c23)s1 [Compound 246] | 0.1 to 1 µM | > 10 µM | 1 to 10 µM | > 10 µM |
| CC(=O)Nc1ncc(-c2cccc3cc([C@H](C)NC(=O)c4c(N)nn5cccnc45)n(-c4ccccc4)c(=O)c23)s1 [Compound 247] | 0.1 to 1 µM | 1 to 10 µM | 1 to 10 µM | > 10 µM |
| COC(=O)c1ncsc1-c1cccc2cc([C@H](C)NC(=O)c3c(N)nn4cccnc34)n(-c3ccccc3)c(=O)c12 [Compound 248] | 1 to 10 µM | > 10 µM | > 10 µM | > 10 µM |
| C[C@H](NC(=O)c1c(N)nn2cccnc12)c1c(Br)c2cccc(F)c2c(=O)n1-c1ccccc1 [Compound 255] | 0.1 to 1 µM | 1 to 10 µM | 1 to 10 µM | 1 to 10 µM |
| COc1cccc2c(Br)c([C@H](C)NC(=O)c3c(N)nn4cccnc34)n(-c3ccccc3)c(=O)c12 [Compound 256] | 0.1 to 1 µM | > 10 µM | 1 to 10 µM | > 10 µM |
| COc1cccc2c(C)c([C@H](C)NC(=O)c3c(N)nn4cccnc34)n(-c3ccccc3)c(=O)c12 [Compound 261] | 0.1 to 1 µM | > 10 µM | 1 to 10 µM | > 10 µM |
| C[C@H](NC(=O)c1nc(-c2cccc(NS(C)(=O)=O)c2)cnc1N)c1cc2cccc(N3CCOCC3)c2c(=O)n1-c1ccccc1 [Compound 263] | 1 to 10 µM | > 10 µM | > 10 µM | > 10 µM |
| C[C@H](NC(=O)c1c(N)nn2cccnc12)c1cc2cccc(N3CCN(C)CC3)c2c(=O)n1-c1ccccc1 [Compound 264] | > 10 µM | > 10 µM | > 10 µM | > 10 µM |
| C[C@H](NC(=O)c1c(N)nn2cccnc12)c1cc2cccc(NC3CCCCC3)c2c(=O)n1-c1ccccc1 [Compound 265] | > 10 µM | > 10 µM | > 10 µM | > 10 µM |
| CC(C)Nc1cccc2cc([C@H](C)NC(=O)c3c(N)nn4cccnc34)n(-c3ccccc3)c(=O)c12 [Compound 268] | > 10 µM | > 10 µM | > 10 µM | > 10 µM |
| Nc1nn2cccnc2c1C(=O)NCc1cc2cccc(Cl)c2c(=O)n1-c1ccccc1 [Compound 274] | > 10 µM | > 10 µM | > 10 µM | > 10 µM |
| C[C@H](NC(=O)c1c(N)nn2cccnc12)c1nn2ccc(Cl)c2c(=O)n1-c1ccccc1 [Compound 286] | > 10 µM | > 10 µM | > 10 µM | > 10 µM |
| C[C@H](NC(=O)c1c(N)nn2cccnc12)c1nn2ccc(-c3cnn(C)c3)c2c(=O)n1-c1ccccc1 [Compound 287] | > 10 µM | > 10 µM | > 10 µM | > 10 µM |
| Cc1cnc(C(=O)N[C@@H](C)c2c(Br)c3cccc(Cl)c3c(=O)n2-c2ccccc2)c(N)n1 [Compound 288] | 1 to 10 µM | > 10 µM | 1 to 10 µM | > 10 µM |
| C[C@H](NC(=O)c1nccnc1N)c1nc2cccc(Cl)c2c(=O)n1-c1ccccc1 [Compound 289] | 0.1 to 1 µM | > 10 µM | < 0.1 µM | 1 to 10 µM |
| C[C@H](NC(=O)c1c(N)nn2cccnc12)c1cc2cccc(Cl)c2c(=O)n1CC(=O)N(C)C [Compound 296] | > 10 µM | > 10 µM | > 10 µM | 1 to 10 µM |
| C[C@H](NC(=O)c1c(N)oc2cccnc12)c1cc2cccc(Cl)c2c(=O)n1-c1ccccc1 [Compound 298] | 1 to 10 µM | > 10 µM | 1 to 10 µM | 1 to 10 µM |
| C[C@H](NC(=O)c1c(N)nn2cccnc12)c1cc2cccc(OC(F)(F)F)c2c(=O)n1-c1ccccc1 [Compound 302] | 1 to 10 µM | > 10 µM | 1 to 10 µM | > 10 µM |
